Values joined by “and” are separate entries in the source; they are usually repeats but may differ in a detail not shown here. Equal entries are not always repeated.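 Step 1: Grow cells in 96-well plates. Step 2: Expose to compound for 48 hours at 5 concentrations. Step 3: Interpolate endpoints linearly; if unreached, use highest concentration. GI50 = concentration required for 50% inhibition of growth. TGI is the concentration that stops growth completely.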

The results in this text go back to PubChem BioAssay (NCI).

Among the test systems are SK-MEL-2 melanoma; OVCAR-4 ovarian; SK-MEL-5 melanoma; RXF 393 renal; HT29 colon; NCI-H460 lung; HCC-2998 colon; SF-539 CNS; CCRF-CEM leukemia; 786-0 renal.
Holding throughout (assay): NCI-60 cell line screen, 48 h

Take `C/C=C(\C)C(=O)O[C@H]1C=CC(=O)O[C@@H]1CC[C@H](O)[C@H](C)O`: the GI50 in the experiment with SK-MEL-2 melanoma was 37.6 µM; with OVCAR-4 ovarian, 41.6 µM; in the experiment on SK-MEL-5 melanoma, 25.4 µM; in the experiment with RXF 393 renal it was 49.5 µM; with HT29 colon it was 30.6 µM; with NCI-H460 lung, greater than 77.3 µM. Besides, the GI50 was 64.6 µM with HCC-2998 colon, 30.9 µM in the experiment with SF-539 CNS, 21.3 µM in the experiment with CCRF-CEM leukemia and 46.5 µM in the experiment on 786-0 renal. The TGI with SK-MEL-2 melanoma was 98.1 µM; with OVCAR-4 ovarian it was 97.5 µM; with SK-MEL-5 melanoma, 75.2 µM; in the experiment on RXF 393 renal, greater than 88.7 µM; with HT29 colon it was 97.5 µM; with NCI-H460 lung, greater than 100 µM. For the same molecule, the TGI in the experiment with HCC-2998 colon is greater than 100 µM; with SF-539 CNS it was greater than 100 µM; in the experiment with CCRF-CEM leukemia, 66.2 µM; with 786-0 renal, greater than 100 µM.
Take `CCOC(=O)NC(=O)c1cn(CCCCCCOC(=O)NCCCCCCNC(=O)OCCCCCCn2cc(C(=O)NC(=O)OCC)c(=O)[nH]c2=O)c(=O)[nH]c1=O`: the TGI with SK-MEL-2 melanoma, in the experiment on OVCAR-4 ovarian, in the experiment on SK-MEL-5 melanoma, with RXF 393 renal, with HT29 colon and in the experiment on NCI-H460 lung was greater than 100 µM each time. The TGI in the experiment with HCC-2998 colon, in the experiment on SF-539 CNS, in the experiment on CCRF-CEM leukemia and in the experiment on 786-0 renal was greater than 100 µM in each case.
Regarding `O=C(c1ccccc1)c1cccc(C(=O)c2ccccc2)c1`, the TGI with SK-MEL-2 melanoma, in the experiment with OVCAR-4 ovarian, with SK-MEL-5 melanoma, in the experiment with RXF 393 renal, with HT29 colon and in the experiment on NCI-H460 lung was greater than 100 µM throughout. Further, the TGI in the experiment on HCC-2998 colon, in the experiment on SF-539 CNS, in the experiment on CCRF-CEM leukemia and in the experiment on 786-0 renal was greater than 100 µM each time.
In the case of `C[C@]12CC[C@H]3[C@@H](CC[C@]4(O)C[C@@H](O)CC[C@]34/C=N/O)[C@@]1(O)CC[C@@H]2C1=COC(=O)C1`, the TGI in the experiment with SK-MEL-2 melanoma was determined as 0.587 µM; in the experiment with OVCAR-4 ovarian, 0.279 µM; in the experiment with SK-MEL-5 melanoma, 0.241 µM; with RXF 393 renal it was 0.091 µM; in the experiment with HT29 colon, 0.594 µM; in the experiment on NCI-H460 lung, 0.166 µM. Besides, the TGI is 0.687 µM with HCC-2998 colon, 0.221 µM with SF-539 CNS, greater than 100 µM in the experiment with CCRF-CEM leukemia and 0.362 µM with 786-0 renal.
Turning to `COC(=O)c1cc2ccc(OC(C)=O)c(OC(C)=O)c2cn1`, the TGI with SK-MEL-2 melanoma was 36.7 µM; in the experiment with OVCAR-4 ovarian it was 30.6 µM; in the experiment on SK-MEL-5 melanoma it was 30.3 µM; in the experiment with RXF 393 renal it was 33.4 µM; in the experiment with HT29 colon it was 52.6 µM; in the experiment with NCI-H460 lung, 39.7 µM. Further, the TGI was 44.6 µM in the experiment on HCC-2998 colon, 33.8 µM in the experiment on SF-539 CNS, 5.57 µM in the experiment with CCRF-CEM leukemia and 33 µM in the experiment on 786-0 renal.
On to `CN(C)c1ccc2nc3ccc(=[N+](C)C)cc-3sc2c1`, for which the GI50 in the experiment on SK-MEL-2 melanoma was 1.44 µM and 0.544 µM; in the experiment with OVCAR-4 ovarian, 0.192 µM and 0.295 µM; with SK-MEL-5 melanoma, 0.146 µM and 0.39 µM; with RXF 393 renal, 2.73 µM and 10.1 µM; in the experiment on HT29 colon it was 3.41 µM and 4.14 µM; in the experiment on NCI-H460 lung, 0.431 µM and 1.03 µM. In addition, the GI50 is 0.745 µM and 6.32 µM in the experiment on HCC-2998 colon; 0.139 µM and 0.379 µM in the experiment on SF-539 CNS; 0.394 µM and 0.685 µM with CCRF-CEM leukemia; 2.68 µM and 2.92 µM in the experiment with 786-0 renal. The TGI in the experiment with SK-MEL-2 melanoma was 3.68 µM and 13.6 µM; in the experiment on OVCAR-4 ovarian it was 1.25 µM and 3.79 µM; in the experiment with SK-MEL-5 melanoma it was 0.412 µM and 1.98 µM; in the experiment with RXF 393 renal, 18 µM and 27.9 µM; with HT29 colon, 11.2 µM and 20.8 µM; in the experiment with NCI-H460 lung, 14.9 µM and > 37.5 µM. The TGI with HCC-2998 colon is 17.8 µM and 36 µM; with SF-539 CNS, 9.82 µM and 14.7 µM; with 786-0 renal, 17.6 µM and 27.1 µM.
Consider `Cc1cccc(C(C)C)c1NC(=O)CC1C(=O)Nc2ccccc2S1(=O)=O` (centres undefined), for which the TGI in the experiment on SK-MEL-2 melanoma is greater than 62 µM; with OVCAR-4 ovarian, 29 µM; with SK-MEL-5 melanoma it was 46.4 µM; in the experiment on RXF 393 renal, 25.8 µM; with HT29 colon, 26.8 µM; with NCI-H460 lung it was 35.2 µM. For the same molecule, the TGI with HCC-2998 colon is greater than 56.2 µM; with SF-539 CNS, 14.5 µM; in the experiment on CCRF-CEM leukemia, 30.2 µM; in the experiment with 786-0 renal it was 39.5 µM.
For the molecule `Cc1ccc(S(=O)(=O)Nc2cccc3[nH]c(C(F)(F)F)nc23)cc1`, the GI50 in the experiment on SK-MEL-2 melanoma is 0.321 µM; in the experiment on OVCAR-4 ovarian, 1.54 µM; in the experiment with SK-MEL-5 melanoma, 0.429 µM; in the experiment with RXF 393 renal it was 1.17 µM; in the experiment on HT29 colon, 0.351 µM; with NCI-H460 lung it was 0.398 µM. Moreover, the GI50 in the experiment with HCC-2998 colon was 2.89 µM; in the experiment on SF-539 CNS, 0.427 µM; in the experiment with CCRF-CEM leukemia, 1.16 µM; in the experiment on 786-0 renal it was 1.94 µM. Moreover, the TGI in the experiment with SK-MEL-2 melanoma was 3.54 µM; with OVCAR-4 ovarian, 80.9 µM; in the experiment with SK-MEL-5 melanoma, 3.98 µM; in the experiment with RXF 393 renal, 27.1 µM; with HT29 colon, 7.31 µM; with NCI-H460 lung it was greater than 38.4 µM. The TGI in the experiment with HCC-2998 colon is 40.3 µM; in the experiment on SF-539 CNS, 2.06 µM; with CCRF-CEM leukemia, greater than 100 µM; in the experiment on 786-0 renal it was 67.3 µM.
`CC[C@H](CO)Nc1nc(NCc2ccccc2)n2ncc(C(C)C)c2n1`: the GI50 with SK-MEL-2 melanoma was 1.47 µM; with OVCAR-4 ovarian it was 2.58 µM; in the experiment on SK-MEL-5 melanoma it was 1.78 µM; in the experiment on RXF 393 renal it was 0.25 µM; in the experiment on HT29 colon, 2 µM; in the experiment on NCI-H460 lung, 1.05 µM. Moreover, the GI50 in the experiment with HCC-2998 colon was 1.2 µM; in the experiment with SF-539 CNS, 1.22 µM; with CCRF-CEM leukemia, 0.648 µM; with 786-0 renal, 1.98 µM. For the same molecule, the TGI in the experiment on SK-MEL-2 melanoma amounted to 6 µM; in the experiment on OVCAR-4 ovarian, 37 µM; in the experiment with SK-MEL-5 melanoma it was 4.96 µM; in the experiment on RXF 393 renal it was 0.792 µM; in the experiment on HT29 colon, 15.5 µM; in the experiment with NCI-H460 lung it was 10.9 µM. Besides, the TGI in the experiment with HCC-2998 colon is 3.27 µM; in the experiment with SF-539 CNS it was 3.62 µM; with CCRF-CEM leukemia, 9.26 µM; in the experiment with 786-0 renal it was 10.7 µM.
Consider `COc1ccc(OC)c(-c2c(C#N)c(N)nc(N3CCOCC3)c2C#N)c1`, for which the GI50 in the experiment with SK-MEL-2 melanoma is greater than 100 µM; with OVCAR-4 ovarian, 43.6 µM; with SK-MEL-5 melanoma it was greater than 100 µM; in the experiment on RXF 393 renal it was 61.4 µM; with HT29 colon, greater than 100 µM; in the experiment with NCI-H460 lung, greater than 100 µM. Moreover, the GI50 is 72.7 µM with HCC-2998 colon, greater than 100 µM with SF-539 CNS, greater than 100 µM with CCRF-CEM leukemia and greater than 100 µM in the experiment on 786-0 renal. The TGI in the experiment with SK-MEL-2 melanoma, in the experiment on OVCAR-4 ovarian, with SK-MEL-5 melanoma, with RXF 393 renal, with HT29 colon and with NCI-H460 lung was greater than 100 µM in each case. For the same molecule, the TGI in the experiment on HCC-2998 colon, in the experiment with SF-539 CNS, with CCRF-CEM leukemia and in the experiment on 786-0 renal was greater than 100 µM in each case.
